Tests used:
Test in all cases: relative viability (nuclei count vs DMSO), 5 days (fraction); higher = more cells survive
[1] = compound: CCn1c(-c2nonc2N)nc2cnc(Oc3cccc(NC(=O)c4ccc(OCCN5CCOCC5)cc4)c3)cc21 + Cc1nc(NC(=O)N2CCC[C@H]2C(N)=O)sc1-c1ccnc(C(C)(C)C(F)(F)F)c1 [Alpelisib] (partner 2 µM)
Outline: (§1)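 Each reported value is a median over duplicate plates. It expresses relative viability: treated-well nuclei count divided by vehicle-well nuclei count. Lung cancer cell lines in 1536-well plates were dosed by pin tool a day after seeding, alone with one drug or with a fixed anchor-drug dose plus five library-drug doses (not always all listed) in √10 steps, and nuclei were counted after 5 days.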

[2] = compound: CCn1c(-c2nonc2N)nc2cnc(Oc3cccc(NC(=O)c4ccc(OCCN5CCOCC5)cc4)c3)cc21 + Nc1ncn([C@H]2C[C@H](O)[C@@H](CO)O2)c(=O)n1 [Decitabine] (partner 2 µM)
Outline: as §1

[3] = compound: N=C1NC(=O)/C(=C/c2ccc(O)cc2)S1 [Mirin] + CC(=O)c1c(C)c2cnc(Nc3ccc(N4CCNCC4)cn3)nc2n(C2CCCC2)c1=O [Palbociclib] (partner 0.5 µM)
Outline: as §1

[4] = compound: N=C1NC(=O)/C(=C/c2ccc(O)cc2)S1 [Mirin] + O=C(CCCCCCC(=O)Nc1ccccc1)NO [Vorinostat] (partner 1 µM)
Outline: as §1

Cell Line	relative viability ([1]; first compound 0.04 µM)	relative viability ([1]; first compound 0.1265 µM)	relative viability ([1]; first compound 0.4 µM)	relative viability ([1]; first compound 1.265 µM)	relative viability ([1]; first compound 4 µM)	relative viability ([2]; first compound 0.04 µM)	relative viability ([2]; first compound 0.1265 µM)	relative viability ([2]; first compound 0.4 µM)	relative viability ([2]; first compound 1.265 µM)	relative viability ([2]; first compound 4 µM)	relative viability ([3]; first compound 0.25 µM)	relative viability ([3]; first compound 0.7906 µM)	relative viability ([3]; first compound 2.5 µM)	relative viability ([3]; first compound 7.906 µM)	relative viability ([3]; first compound 25 µM)	relative viability ([4]; first compound 0.25 µM)	relative viability ([4]; first compound 0.7906 µM)	relative viability ([4]; first compound 2.5 µM)	relative viability ([4]; first compound 7.906 µM)	relative viability ([4]; first compound 25 µM)
NCI-H1355	0.863	0.951	0.818	0.814	0.863	0.31	0.36	0.358	0.364	0.307	0.395	0.427	0.41	0.412	0.443	0.608	0.696	0.683	0.605	0.699
EKVX	1.16	0.83	0.883	0.764	0.837	0.397	0.381	0.331	0.35	0.34	0.367	0.376	0.302	0.365	0.412	0.784		0.785	0.935	0.799
NCI-H460	0.72	0.452	0.444	0.205	0.15	0.515	0.574	0.383	0.245	0.148	0.18	0.148	0.157	0.157	0.123	0.709	0.824	0.666	0.687	0.685
NCI-H1975	0.548	0.439	0.401	0.221	0.202	0.311	0.289	0.293	0.228	0.201	0.7	0.57	0.555	0.606	0.583	0.696	0.777	0.718	0.703	0.733
HCC-78	0.494	0.336	0.429	0.487	0.455	0.613	0.78		0.74	0.634	0.536	0.41	0.453	0.505	0.381	0.41	0.473	0.472	0.399	0.471
NCI-H2085	1.15	0.959	0.86	0.869	0.845	0.433	0.581	0.528	0.466	0.472	0.458	0.47	0.495	0.562	0.486	0.805	0.842	0.853	0.922	0.804
H3255	1.08	0.622	0.622	0.583	0.594	0.774	0.594	0.63	0.403	0.518	0.308	0.309	0.298	0.323	0.328	0.547	0.678	0.846	0.789	0.814
NCI-H2126	0.804	0.703	0.728	0.822	0.789	0.629	0.623	0.56	0.636	0.519	0.342	0.361	0.332	0.394	0.396	0.852	0.645	0.679	0.792	0.713
LC-2-ad	0.945	0.542	0.797	0.658	0.515	0.769	0.755	0.818	0.642	0.615	0.543	0.456	0.474	0.505	0.483	0.641	0.7	0.713	0.624	0.679
RERF-LC-KJ	0.846	0.809	0.733	0.662	0.507	0.621	0.695	0.588	0.452	0.29	1.14	1.09	1.2	1.2	1.1	0.565	0.816	0.686	0.709	0.664
EBC-1	1.02	0.767	0.678	0.733	0.557															
HCC-15	1.03	0.831	0.953	0.867	0.845	0.608	0.516	0.446	0.427	0.507	0.739	0.712	0.677	0.674	0.737	0.902	0.955	0.915	0.838	0.82
NCI-H1563	0.96	0.878	0.825	0.766	0.712															
COR-L 105	1.08	0.694	0.938	0.596	0.459	0.669	0.512	0.596	0.432	0.377	0.426	0.415	0.376	0.432	0.42	0.822	1.01	0.983	0.758	0.655
NCI-H596	0.482	0.51	0.612	0.49	0.55	1.01	1.04	0.969	0.926	0.932						0.727	0.474	0.641	0.758	0.589
LU99A	0.769	0.642	0.447	0.51	0.46	1.03	0.994	0.929	1.02	0.844	0.412	0.339	0.425	0.358	0.339	0.44	0.44	0.474	0.457	0.33
NCI-H1666	1.45	1.21	1.06	0.606	0.513	0.796	0.787	0.751	0.653	0.704	0.684	0.665	0.64	0.627	0.662	1.01	1.23	1.01	0.928	0.938
NCI-H2170	0.748	0.747	0.912	0.719	0.817	0.473	0.494	0.494	0.474	0.431	0.415	0.379	0.374	0.361	0.436	0.621	0.828	0.906	0.665	0.859

From the supplement of paper PMC10307832
